What all share (assay): area under concentration-response curve (viability) (AUC (a.u.)); higher = less active
Holding throughout (settings): 48 h

For one experiment, the system named is NCI-H295R. The method, boiled down: (§1)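 In 1,536-well plates, 500–1,000 cells/well of three adrenocortical carcinoma cell lines in 5 µL medium received 23 nL of each library compound across 11 concentrations. At 48 h, CellTiter-Glo was incubated for 15 minutes at room temperature and luminescence measured. Per-plate normalisation used vehicle and empty-well controls, and only inhibitory or non-responding curve classes were kept when fitting concentration-response curves for AC50 and area under the curve.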

Another experiment has as its system CU-ACC1. The method, boiled down: as §1
For a further experiment, the system named is CU-ACC2. The method, boiled down: as §1

Structures are written as SMILES.

For the molecule `CCN([C@H]1CC[C@@H](CC1)N(C)CCOC)C2=C(C)C(=CC(=C2)C#CCN3CCOCC3)C(=O)NC\C4=C(C)\C=C(\C)NC4=O`, the “area under concentration-response curve” value in the experiment with NCI-H295R worked out at 552; in the experiment on CU-ACC1, 536; with CU-ACC2, 500.

Consider `CC(C)OC(=O)C(C)(C)Oc1ccc(C(=O)c2ccc(Cl)cc2)cc1`, for which the “area under concentration-response curve” value was 517 with NCI-H295R, 593 in the experiment with CU-ACC1 and 608 in the experiment with CU-ACC2.

For `C[C@]12CC[C@H]3[C@@H](CCC4=CC(=O)CC[C@@H]43)[C@@H]1CC[C@@H]2OC(=O)CCc1ccccc1`, the “area under concentration-response curve” value amounted to 498 with NCI-H295R, 461 with CU-ACC1 and 534 in the experiment on CU-ACC2.

As to `COc1nc(-c2ccc3c(c2)OCO3)n(-c2ccc(NC(=O)CSc3ccccc3)cc2)n1`, the “area under concentration-response curve” value turned out to be 573 in the experiment with NCI-H295R, 408 in the experiment on CU-ACC1 and 611 in the experiment on CU-ACC2.

On to `Cn1nccc1Nc1nccc(-c2cc3c(s2)C(C)(C)N(CCN2CCOCC2)C3=O)n1`, for which the figures for the “area under concentration-response curve” value in the experiment on NCI-H295R, in the experiment on CU-ACC1 and with CU-ACC2 were 544, 528 and 589, respectively.

With `COc1cc(OC)c(C(=O)CCCN2CCCC2)c(OC)c1`, the results for the “area under concentration-response curve” value in the experiment on NCI-H295R, in the experiment with CU-ACC1 and in the experiment on CU-ACC2 were 465, 440 and 500, respectively.

On to `C[S+](=O)([O-])Nc1ccc([N+](=O)[O-])cc1Oc1ccccc1`, for which the “area under concentration-response curve” value in the experiment with NCI-H295R was 583; with CU-ACC1 it was 544; in the experiment on CU-ACC2 it was 639.

With `Cc1ccc(-c2ccc(C)cn2)nc1`, the entries for the “area under concentration-response curve” value in the experiment on NCI-H295R, with CU-ACC1 and in the experiment on CU-ACC2 were 384, 405 and 342, respectively.

Consider `N[S+](=O)([O-])NCCNc1nonc1/C(=N/O)Nc1ccc(F)c(Br)c1`, for which the “area under concentration-response curve” value with NCI-H295R stood at 468; in the experiment with CU-ACC1 it was 524; with CU-ACC2 it was 595.

Consider `N=C(N)NC(=N)NCCc1ccccc1`, for which the results for the “area under concentration-response curve” value with NCI-H295R, in the experiment on CU-ACC1 and in the experiment on CU-ACC2 were 573, 525 and 626, respectively.

Consider `C[C@H](c1ccc(F)cc1CCCC(=O)O)N(c1cc(F)ccc1F)[S+](=O)([O-])c1ccc(Cl)cc1`, for which the “area under concentration-response curve” value in the experiment with NCI-H295R came to 553; in the experiment on CU-ACC1 it was 519; in the experiment on CU-ACC2, 596.

On to `CCC(=O)NC[C@H](Cc1ccc(OCCc2nc(-c3ccccc3)oc2C)cc1)N/C(C)=C\C(=O)c1ccc(C(F)(F)F)cc1`, for which the entries for the “area under concentration-response curve” value with NCI-H295R, with CU-ACC1 and with CU-ACC2 were 487, 498 and 548, respectively.

`CCNC(=O)CCC/C=C\C[C@@H]1[C@@H](/C=C/C(O)CCc2ccccc2)[C@@H](O)C[C@@H]1O` (some centres not stated): the “area under concentration-response curve” value in the experiment with NCI-H295R was 571; with CU-ACC1, 508; in the experiment on CU-ACC2, 646.

In the case of `O=C1CCc2ccc(OCCCCN3CCN(c4cccc(Cl)c4Cl)CC3)cc2N1`, the “area under concentration-response curve” value in the experiment on NCI-H295R was determined as 544; with CU-ACC1, 468; in the experiment on CU-ACC2, 593.

`CC1=CC=C(C=C1)\C2=N\C3=CC=C(Cl)C=C3OC2`: the “area under concentration-response curve” value with NCI-H295R was 546; with CU-ACC1, 504; with CU-ACC2, 613.

Turning to `C=C1/C(=C/C=C2\CCCC3(C)[C@@H]([C@H](C)/C=C/C=C/C(O)(CC)CC)CC[C@@H]23)C[C@@H](O)C[C@@H]1O` (some centres not stated), the figures for the “area under concentration-response curve” value in the experiment with NCI-H295R, in the experiment with CU-ACC1 and in the experiment with CU-ACC2 were 522, 480 and 576, respectively.

In the case of `O=c1sn(-c2cccc3ccccc23)c(=O)n1Cc1ccccc1`, the figures for the “area under concentration-response curve” value in the experiment with NCI-H295R, in the experiment with CU-ACC1 and in the experiment on CU-ACC2 were 433, 462 and 501, respectively.

For the molecule `O=C1[C@H](CC[C@H](O)c2ccc(F)cc2)[C@@H](c2ccc(O)cc2)N1c1ccc(F)cc1`, the “area under concentration-response curve” value was 565 with NCI-H295R, 536 with CU-ACC1 and 650 with CU-ACC2.

As to `Cc1coc2c1C(=O)C(=O)c1c-2ccc2c1CCCC2(C)C`, the “area under concentration-response curve” value with NCI-H295R turned out to be 456; with CU-ACC1, 433; in the experiment on CU-ACC2 it was 479.
